Results from US5948780A, “Method for treating and preventing heart failure and ventricular dilatation” (priority 1997, dated 1999).
Read-outs that look alike come from different tables or passages of the source.

Columns and labels:
in vivo = experiment: in vivo; design: species or system Yorkshire pigs; conditions: pig, po, 10 mg/kg
Experimental: In a similar study, three Yorkshire pigs (22-25 kg, male, Hambone Farms, S.C.) were chronically instrumented in order to measure arterial blood pressure in the conscious state. The pigs were anesthetized with isoflurane (3%/1.5 L/min) and a mixture of nitrous oxide and oxygen (50:50), intubated with a cuffed endotracheal tube and ventilated at a flow rate of 22 mL/kg/minute, and a respiratory rate of 15/minute. A left thoracotomy was performed, and the thoracic aorta at the location of the hemi-azygous crossover exposed. A catheter connected to a vascular process port (Model GPV, 9F, Access Technologies, Skokie, Ill.) was placed in the aorta and sutured in place. The access port was buried in a subcutaneous pocket over the thoracolumbar fascia. Following a recovery period of 7 to 10 days, the animal was returned to the laboratory for baseline studies. […] The vascular access port was entered using a 12-gauge Huber needle (Access Technologies, Skokie, Ill.) and basal, resting arterial pressure and heart rate were recorded. […]
The MMP inhibitor chosen for these studies was Compound A as above. […] Plasma levels of the MMP inhibitor were determined by the degree of hydrolysis of the MMP substrate thiopeptolide Ac-Pro-Leu-Gly-thioester-Leu-Leu-Gly=OEt. […]

[1] = system: catalytic domain of stromelysin; experiment: plasma MMP inhibitory activity (thiopeptolide hydrolysis), stromelysin; format: biochemical; conditions: plasma after 10 mg/kg oral administration
Experimental: The MMP inhibitor chosen for these studies was Compound A as above. A single oral dose of 10 mg/kg of Compound A was administered in one pig, and a second pig was simultaneously administered a single 10 mg/kg dose of the MMP inhibitor intravenously. Plasma samples were serially collected from the chronically placed arterial access ports. Plasma levels of the MMP inhibitor were determined by the degree of hydrolysis of the MMP substrate thiopeptolide Ac-Pro-Leu-Gly-thioester-Leu-Leu-Gly=OEt. […] A pharmacokinetic profile was constructed using these initial data, and it was predicted that an oral delivery of 20 mg/kg/day of Compound A would provide significant MMP plasma inhibitory activity at trough levels. Accordingly, the 3 pigs underwent 20 mg/kg QD-AM of treatment with Compound A for 5 days. In order to confirm adequate MMP inhibitory activity, plasma was collected prior to the AM dose with each day of treatment. […] Thus, a practical dosing regiment of Compound A was established which provided stable plasma MMP inhibitory activity in the animal model to be used in the present study.

[2] = system: chronic rapid pacing heart failure model; experiment: LV geometry, LV function and systemic hemodynamics with chronic rapid pacing (Table III); format: in vivo, pig; conditions: Rapid Pacing + MMPi, 20 mg/kg QD, 3 weeks, mean ± SEM
Text: Pacemakers were implanted or sham procedures performed with the animals anesthetized as described in the preceding section. In addition to the placement of the aortic access port, a shielded stimulating electrode was sutured onto the left atrium, connected to a modified programmable pacemaker (8329, Medtronic, Inc., Minneapolis, Minn.), and buried in a subcutaneous pocket. The pericardium was approximated, the thoracotomy closed, and the pleural space evacuated of air. Ten to 14 days following recovery from the surgical procedure, baseline studies were performed, and the protocols described above were begun. Cardiac auscultation and an electrocardiogram were performed frequently during the pacing protocol in order to ensure proper operation of the pacemaker and the presence of 1:1 conduction. In this porcine preparation, atrio-ventricular conduction can be maintained at this pacing rate and therefore provide a homogeneous pattern of ventricular myocardial electrical activation. The sham operated controls were cared for in identical fashion with the exception of the pacing protocol. All animals were treated and cared for in accordance with the National Institutes of Health "Guide for the Care and Use of Laboratory Animals" (National Research Council, Washington, 1996).
LV size and function were measured at weekly intervals in all of the pigs undergoing rapid pacing. For these studies, the animals were brought to the laboratory and the pacemaker deactivated. All measurements were performed at an ambient resting heart rate within 30 to 40 minutes following pacemaker deactivation. Two-dimensional and M-mode echocardiographic studies (ATL Ultramark VI, 2.25 MHz transducer, Bothell, Wash.) were used to image the LV from a right parasternal approach. LV fractional shortening was calculated as ([…])/end-diastolic dimension and was expressed as a percent. Peak circumferential global average wall stress was computed using a spherical model of reference: σ(gm/cm^2)=(PD/4h(1+h/D))×1.36; where P=aortic systolic pressure measured from the access port, D=minor axis dimension at end-diastole, and h=wall thickness. The mean velocity of circumferential fiber shortening (Vcf) was calculated using the LV echocardiographic dimension measurements and the arterial pressure trace. The LV ejection time, used in the calculation of Vcf, was rate-corrected to a heart rate of 60 bpm by […] by the square root of the RR interval.

plasma neurohormones = plasma neurohormones with chronic rapid pacing (Table III); format: in vivo, pig; conditions: Rapid Pacing + MMPi, 20 mg/kg QD, 3 weeks, mean ± SEM
Experimental: Following steady-state LV function measurements, 35 cc of blood was drawn from the arterial access port into chilled tubes containing EDTA (1.5 mg/mL). The blood samples were immediately centrifuged (2000 g, 10 min, 4° C.), the plasma decanted into separate tubes, frozen in a dry ice/methanol bath, and stored at -80° C. until the time of assay.
The plasma samples were assayed for renin activity, catecholamine levels, and plasma MMP inhibition levels. Plasma renin activity (PRA) was determined by computing angiotensin I production using a radioimmunoassay (NEA-026, New England Nuclear, Boston, Mass.). Plasma norepinephrine was measured using high-performance liquid chromatography and normalized to pg/mL of plasma. All assays were performed in duplicate.
For comparisons of neurohormonal profiles, the Student-Neuman-Kuells test was employed. […] Values of p<0.05 were considered to be statistically significant.

[3] = plasma levels of Compound A in MI-rat; format: in vivo; conditions: po, read-out: Plasma Level
Experimental: Drugs were administered in chow such that the investigators were blinded to group assignment. A biweekly record of health status, body weight, and food consumption was maintained.
Dosing began at 2 weeks post-MI and continued for 6 weeks.
The isoflurane level was then increased to 2%; the Millar was removed from the carotid and replaced with a PE-50 cannula. A 5 mL blood sample was taken using the PE-50 cannula and an ice-cold syringe. Blood was then put into an ice-cold EDTA tube, and centrifuged at 5000 RPM for 10 minutes at 4° C. Plasma was aliquoted, then stored at -80° C. until assays were performed to assess plasma drug levels and other factors.

[4] = system: MI-rat (coronary artery ligation) heart failure model; experiment: ischemic model of heart failure (MI-rat), Compound A dose-response; format: in vivo; design: LVV at LVEDP: unit not given here; conditions: for LVEDP / LVV at LVEDP / dp/dt MAX: 6 weeks
isolated LV myocytes = experiment: isolated myocyte contractile function with pacing induced congestive heart failure (Table IV); conditions: Rapid Pacing + MMPi, 20 mg/kg QD
Experimental: Following completion of the 21-day protocol, a final set of LV function measurements were performed and plasma collected. Following steady-state LV function measurements, 35 cc of blood was drawn from the arterial access port into chilled tubes containing EDTA (1.5 mg/mL). The blood samples were immediately centrifuged (2000 g, 10 min, 4° C.), the plasma decanted into separate tubes, frozen in a dry ice/methanol bath, and stored at -80° C. until the time of assay. The animals were then anesthetized as described in the preceding section, a sternotomy performed, and the heart quickly extirpated and placed in a phosphate buffered ice slush. The great vessels, atria, and right ventricle were carefully trimmed away, and the LV weighed. The region of the LV free wall incorporating the circumflex artery (5×5 cm) was excised and prepared for myocyte isolation. The region of the left ventricular free wall comprising the left anterior descending artery (3×5 cm) was cannulated and prepared for perfusion fixation.
Myocytes were isolated from the LV free wall as follows. The left circumflex coronary artery was perfused with a collagenase solution (0.5 mg/mL, Worthington, type II; 146 U/mg) for 35 minutes. The tissue was then minced into 2 mm sections and gently agitated. After 15 minutes, the supernatant was removed, filtered, and the cells allowed to settle. The myocyte pellet (5×10^4 cells/mL) was then resuspended in standard cell culture media (M199, Gibco Laboratories, Grand Island, N.Y.). […] Viable myocytes were defined as those cells which retained a rod shape, were calcium tolerant, responded to electrical stimulation, and excluded trypan blue. Isolated myocyte function was examined using a thermostatically controlled chamber (37° C.) containing a volume of 2.5 mL and two stimulating platinum electrodes to image the isolated myocytes on an inverted microscope (Axiovert IM35, Zeiss Inc., Germany). A 20× long working distance Hoffmann Modulation Contrast objective (Modulation Optics Inc., Greenvale, N.Y.) was used to image the myocytes. Myocyte contractions were elicited by field stimulating the tissue chamber at 1 Hz (S11, Grass Instruments, Quincy, Mass.) using current pulses of 5 msec duration and voltages 10% above contraction threshold. Myocyte motion signals were captured and input through an edge detector system (Crescent Electronics, Sandy, Utah). The distance between the left and right myocyte edges was converted into a voltage signal, digitized, and input to a computer (80386; ZBV2526, Zenith Data Systems, St. Joseph, Mich.) for analysis. Parameters computed from the digitized contraction profiles include percent shortening, velocity of shortening, velocity of relengthening, time to peak contraction, and duration of contraction.
Indices of LV and myocyte function were compared between the three treatment groups using multi-way analysis of variance (ANOVA). For comparisons of LV function with each week of pacing, an ANOVA for repeated measures was used. […] For comparisons of neurohormonal profiles, the Student-Neuman-Kuells test was employed. The categorical scores obtained from the histomorphometric studies were compared between groups using the Chi-Square analysis. All statistical procedures were performed using the BMDP statistical software package (BMDP Statistical Software Inc., Los Angeles, Calif.). […] Values of p<0.05 were considered to be statistically significant.

Question: For `CC(C)C(NS(=O)(=O)c1ccc(-c2ccc(Br)cc2)cc1)C(=O)O` (stereo not drawn) [Compound A, 2-(4'-bromobiphenyl-4-sulfonylamino)-3-methylbutyric acid], which bioavailability at 4 h (in vivo) is on record?
Answer: ~100%

Question: And the “reduction in activity against the catalytic domain of stromelysin” value [1]?
Answer: ~50%

Question: And the “End-Diastolic Dimension” value [2]?
Answer: 4.7 ± 0.2 cm

Question: What about the “Fractional Shortening” value [2] of the same molecule?
Answer: 26 ± 3%

Question: What about the “Heart Rate” value [2] of the same molecule?
Answer: 149 ± 3 bpm

Question: What about the “Mean Arterial Pressure” value [2] of the same molecule?
Answer: 83 ± 2 mmHg

Question: And the “Peak Wall Stress” value [2]?
Answer: 185 ± 11 g/cm^2

Question: And the “Vcf (velocity of circumferential fiber shortening)” value [2]?
Answer: 1.4 ± 0.2 s⁻¹

Question: And the “Vcfc (velocity of circumferential fiber shortening corrected for heart rate)” value [2]?
Answer: 2.3 ± 0.2 s⁻¹

Question: What about the “Wall Thickness” value [2] of the same molecule?
Answer: 0.80 ± 0.22 CM

Question: What about the Norepinephrine (plasma neurohormones) of the same molecule?
Answer: 1073 ± 241 pg/mL

Question: What about the “Renin Activity” value (plasma neurohormones) of the same molecule?
Answer: 10.4 ± 1.1 ng/mL/h

Question: What about the concentration at 1008 h ([3]; 0.005 mg/kg/day in chow) of the same molecule?
Answer: 2 ± 1 µM

Question: What about the concentration at 1008 h ([3]; 0.05 mg/kg/day in chow) of the same molecule?
Answer: 16 ± 4 µM

Question: And the concentration at 1008 h ([3]; 0.5 mg/kg/day in chow)?
Answer: 55 ± 3 µM

Question: What about the concentration at 1008 h ([3]; 5 mg/kg/day in chow) of the same molecule?
Answer: 201 ± 7 µM

Question: What about the LVEDP ([4]; 0.005 mg/kg/day in chow) of the same molecule?
Answer: 20 ± 4 mm Hg

Question: And the “LVV at LVEDP” value ([4]; 0.005 mg/kg/day in chow)?
Answer: 650 ± 96

Question: And the “dp/dt MAX” value ([4]; 0.005 mg/kg/day in chow)?
Answer: 5900 ± 474 mm Hg/sec

Question: And the LVEDP ([4]; 0.05 mg/kg/day in chow)?
Answer: 16 ± 3 mm Hg

Question: What about the “LVV at LVEDP” value ([4]; 0.05 mg/kg/day in chow) of the same molecule?
Answer: 622 ± 72

Question: What about the “dp/dt MAX” value ([4]; 0.05 mg/kg/day in chow) of the same molecule?
Answer: 6553 ± 331 mm Hg/sec

Question: And the LVEDP ([4]; 0.5 mg/kg/day in chow)?
Answer: 20 ± 3 mm Hg

Question: What about the “LVV at LVEDP” value ([4]; 0.5 mg/kg/day in chow) of the same molecule?
Answer: 751 ± 65

Question: What about the “dp/dt MAX” value ([4]; 0.5 mg/kg/day in chow) of the same molecule?
Answer: 5997 ± 351 mm Hg/sec

Question: What about the LVEDP ([4]; 5 mg/kg/day in chow) of the same molecule?
Answer: 16 ± 3 mm Hg

Question: What about the “LVV at LVEDP” value ([4]; 5 mg/kg/day in chow) of the same molecule?
Answer: 647 ± 66

Question: And the “dp/dt MAX” value ([4]; 5 mg/kg/day in chow)?
Answer: 6357 mm Hg/sec

Question: What about the “LV function as measured by dP/dt MAX” value ([4]; 3 highest doses) of the same molecule?
Answer: significantly improved LV function

Question: And the LV dilation ([4]; every dose (0.005-5 mg/kg/day in chow))?
Answer: significantly reduced LV dilation at every dose

Question: What about the “Percent Shortening” value (isolated LV myocytes; 7 mM calcium) of the same molecule?
Answer: 5.6 ± 0.5%

Question: What about the “Relengthening Velocity” value (isolated LV myocytes; 7 mM calcium) of the same molecule?
Answer: 78 ± 5 μm/s

Question: And the “Resting Length” value (isolated LV myocytes; 7 mM calcium)?
Answer: 156 ± 5 μm

Question: What about the “Shortening Velocity” value (isolated LV myocytes; 7 mM calcium) of the same molecule?
Answer: 84 ± 7 μm/s

Question: And the “Time to 50% Relaxation” value (isolated LV myocytes; 7 mM calcium)?
Answer: 102 ± 5 ms

Question: And the “Time to Peak Contraction” value (isolated LV myocytes; 7 mM calcium)?
Answer: 240 ± 3 ms

Question: What about the “Total Duration” value (isolated LV myocytes; 7 mM calcium) of the same molecule?
Answer: 476 ± 10 ms

Question: What about the “Percent Shortening” value (isolated LV myocytes; […] nM isoproterenol) of the same molecule?
Answer: 5.1 ± 0.5%

Question: What about the “Relengthening Velocity” value (isolated LV myocytes; […] nM isoproterenol) of the same molecule?
Answer: 80 ± 11 μm/s

Question: And the “Resting Length” value (isolated LV myocytes; […] nM isoproterenol)?
Answer: 161 ± 3 μm

Question: And the “Shortening Velocity” value (isolated LV myocytes; […] nM isoproterenol)?
Answer: 108 ± 11 μm/s

Question: What about the “Time to 50% Relaxation” value (isolated LV myocytes; […] nM isoproterenol) of the same molecule?
Answer: 104 ± 6 ms

Question: And the “Time to Peak Contraction” value (isolated LV myocytes; […] nM isoproterenol)?
Answer: 175 ± 2 ms

Question: And the “Total Duration” value (isolated LV myocytes; […] nM isoproterenol)?
Answer: 433 ± 12 ms

Question: And the “Percent Shortening” value (isolated LV myocytes; baseline)?
Answer: 2.2 ± 0.1%

Question: And the “Relengthening Velocity” value (isolated LV myocytes; baseline)?
Answer: 26 ± 2 μm/s

Question: What about the “Resting Length” value (isolated LV myocytes; baseline) of the same molecule?
Answer: 169 ± 4 μm

Question: What about the “Shortening Velocity” value (isolated LV myocytes; baseline) of the same molecule?
Answer: 31 ± 2 μm/s

Question: And the “Time to 50% Relaxation” value (isolated LV myocytes; baseline)?
Answer: 131 ± 5 ms

Question: What about the “Time to Peak Contraction” value (isolated LV myocytes; baseline) of the same molecule?
Answer: 244 ± 7 ms

Question: What about the “Total Duration” value (isolated LV myocytes; baseline) of the same molecule?
Answer: 498 ± 9 ms
